Data: US4544629A, “Receptor-based histamine assay” (Minnesota Mining and Manufacturing Company, priority 1982, dated 1985)
Structures can show the parent of a compound that is named as a salt. Where two headings read alike, the source gives them in different places.

Columns and labels:
[1] = system: histamine receptor
Protocol: (§1) Samples of 200 microliters of heat-inactivated fetal calf sera were added to each well of a polystyrene microtiter plate as a protein pretreatment and the seracontaining plates were incubated at 25° C. for 15 minutes. Each well was then washed twice with phosphate-buffered saline. To each well was added 200 microliters of 1 millimolar trinitrobenzene sulfonate in phosphate-buffered saline, and the plate was incubated at 37° C. for thirty minutes. Each well was then washed three times with phosphate-buffered saline. To each well was then added 200 microliters of histamine receptor in phosphate buffered saline prepared according to the procedure of EXAMPLE 1. The plate was then incubated at 25° C. for thirty minutes. After the incubation, each well was washed three times with phosphate-buffered saline and the plates were allowed to air dry at 25° C. for about 16 hours, then stored at 4° C.

[2] = system: histamine receptor; conditions: read at 510 nm, blank .400, background .095
Protocol: (§2) In order to free the histamine receptors from the cell wall, the cells were washed three times in phosphate buffered saline, resuspended at a concentration of 1×10^7 cells per ml in phosphate-buffered saline and either stored at 4° C. for three days or incubated at 46° C. for 90 minutes. The cells were then centrifuged at 1000 X G for ten minutes. The supernatant liquid containing the shed histamine receptors was removed by aspiration and the cell pellet discarded.
as §1

[3] = system: histamine receptor on whole cells; conditions: 1×10^6 cells
Protocol: (§3) To determine the sensitivity of the histamine assay, an inhibition assay was performed using whole cells with histamine in 0.01M phosphate-bufferedsaline as the inhibitor. The histamine was incubated with 1×10^6cells for 30 minutes. The unbound inhibitor was washed out and the histamine-enzyme added and incubated 30 minutes. After washing out the unbound indicator, the enzyme substrate, p-nitrophenyl phosphate was added and incubated for 1 hour at 37° C. The enzymatic reaction was stopped with 1N aqueous sodium hydroxide and the absorbance at A410 read from a Beckman spectrophotometer. The amount of product formed was inversely proportional to the amount of free histamine bound to the cells.

[4] = system: cell surface histamine receptors; conditions: phosphate-buffered saline
Protocol: as §2, §1
(§4) Cell surface histamine receptors prepared as described in EXAMPLE 1 were affixed to microtiter plate wells by protein pretreatment (see EXAMPLE 2) of the plate followed by surface activation with 1 millimolar trinitrobenzene sulfonate as described in EXAMPLE 2.
(§5) The various quantities of histamine in phosphate-buffered saline were incubated in several replications with the receptor. […] After washing out the unbound indicator, para-nitrophenyl phosphate was added and incubated for 1 hour at 37° C. The enzymatic reaction was stopped with 1N aqueous sodium hydroxide and the absorbance at A410 read from a Beckman spectrophotometer.

[5] = system: histamine receptors attached to a solid phase; conditions: anticoagulated human whole blood
Protocol: as §3, §4, §5
Using the method described in EXAMPLES 6 and 7, the sensitivity of the assay to histamine dissolved in anticoagulated human whole blood was measured.

[6] = system: histamine receptor on whole cells
Protocol: The reaction was stopped with 1N aqueous sodium hydroxide and the product formed was quantified spectrophotometrically. The total enzyme activity was determined by incubating 10 microliters of the dilutions of histamine-enzyme with the enzyme substrate for 60 minutes, stopping the reaction with lN aqueous sodium hydroxide and quantifying the product formed.

Which “Average 3H Counts per minute” value ([1]; control wells (nonspecific binding)) does the source give for `[3H]c1nc(CCN)c([3H])[nH]1` [3H-labeled histamine, 2,5-^3 H-histamine hydrochloride] here?
Its value is 1172 Counts per minute.

What about the “Average 3H Counts per minute” value ([1]; receptor wells) of the same molecule?
The value was 7968 Counts per minute.

`NCCc1c[nH]cn1` [Histamine, histamine] was tested. Which Absorbance ([2]; 25 micrograms histamine per well) did it give?
Its Absorbance is “.310”.

What about the Absorbance ([2]; 50 micrograms histamine per well) of the same molecule?
The Absorbance was “.285”.

And the Absorbance ([2]; 75 micrograms histamine per well)?
The Absorbance was “.205”.

And the Absorbance ([2]; 100 micrograms histamine per well)?
The Absorbance was “.125”.

What about the “Percent inhibition of enzyme activity” value ([3]; histamine added 500 pg) of the same molecule?
The value was 7%.

What about the “Percent inhibition of enzyme activity” value ([3]; histamine added 5 ng) of the same molecule?
Its value is 14%.

And the “Percent inhibition of enzyme activity” value ([3]; histamine added 50 ng)?
Its value is 24%.

And the “Percent inhibition of enzyme activity” value ([3]; histamine added 500 ng)?
The value was 32%.

And the “Percent inhibition of enzyme activity” value ([3]; histamine added 5 g (so in the source))?
Its value is 45%.

And the “Percent inhibition of enzyme activity” value ([3]; histamine added 50 g (so in the source))?
The value was 69%.

What about the “Percent inhibition of enzyme activity” value ([4]; 0.05 ng histamine added) of the same molecule?
Its value is 30%.

What about the “Percent inhibition of enzyme activity” value ([4]; 0.1 ng histamine added) of the same molecule?
The value was 40%.

What about the “Percent inhibition of enzyme activity” value ([4]; 0.25 ng histamine added) of the same molecule?
Its value is 46%.

What about the “Percent inhibition of enzyme activity” value ([4]; 0.5 ng histamine added) of the same molecule?
Its value is 52%.

And the “Percent inhibition of enzyme activity” value ([4]; 1 ng histamine added)?
The value was 60%.

What about the “Percent inhibition of enzyme activity” value ([4]; 5 ng histamine added) of the same molecule?
Its value is 65%.

And the “Percent inhibition of enzyme activity” value ([4]; 10 ng histamine added)?
The value was 72%.

And the “Percent inhibition of enzyme activity” value ([4]; 25 ng histamine added)?
Its value is 79%.

And the “Percent inhibition of enzyme activity” value ([5]; 1 ng histamine added)?
The value was 49%.

And the “Percent inhibition of enzyme activity” value ([5]; 5 ng histamine added)?
The value was 70%.

What about the “Percent inhibition of enzyme activity” value ([5]; 10 ng histamine added) of the same molecule?
Its value is 79%.

What about the “Percent inhibition of enzyme activity” value ([5]; 25 ng histamine added) of the same molecule?
The value was 91%.

What about the “Inhibition of receptor-bound histamine-enzyme stimulation” value [6] of the same molecule?
Its value is “inhibitable”.

What about the “Effect of added histamine on the enhanced enzyme activity” value ([6]; histamine added before incubation with histamine-alkaline phosphatase) of the same molecule?
Its value is “inhibited”.
